# Experiments:
# confluent BAEC [1] = experiment: Total β-galactosidase expression measured fluorometrically in cell lysates; format: cell-based, bovine; conditions: for enhancement of β-galactosidase expression / gene transfer: lipofection; for increase in total β-galactosidase expression over transfection with plasmid alone: plasmid precomplexed with peptide, lipofectamine
# Method: (§1) Bovine aortic endothelial cells (BAEC) (passage<10) are grown to confluence, passed to a 6-well culture dish at a split ratio of 1:3, and then grown to confluence as described by Subramanian, A. and Diamond, S. L. Tissue Engineering 3, 39-52, 1997. Growth medium is Dulbecco's modified Eagle's medium (DMEM) containing 10% heat inactivated newborn calf serum, 0.30 mg/ml of glutamine, 150 U/ml penicillin and 0.15 mg/ml streptomycin (GIBCO, Grand Island, N.Y.). Hela cells (Hela S3 ATCC No. CCL 2.2) are grown in DMEM media (Gibco BRL) supplemented with 10% fetal calf serum as described by Ranjan, V. and Diamond, S. L. Biochem. Biophys. Res. Comm. 196, 79, 1993.
# (§2) Cationic liposomes (Lipofectamine Reagent, Gibco-BRL), containing a 3:1 by weight mixture of polycationic lipid 2,3-dioleoyloxy-N-[2(sperminecarboxamido)ethyl]-N,N-dimethyl-1 propanaminium trifluoroacetate (DOSPA) and the neutral lipid dioleoyl phosphatidylethanolamine (DOPE) was used in all transfections in accordance with procedures described by Subramanian, A. and Diamond, S. L. Tissue Engineering 3, 39-52, 1997. Pure liposome (10 μl) diluted to 100 μl are added to the DNA/scaffold complex, incubated for 45 minutes. Then 0.8 ml of OPTIMEM media is added to this mixture which is then overlaid on the cells. The cells are incubated for 2 hours at 37 ? C. After two hours, the mixture is aspirated, 4% serum in OPTIMEM media is added, and the cells are allowed to grow for 48 hours. The cells are then fixed and assayed for ? -gal activity. During the transfections, the cells are continuously monitored for cell viability and adhesion.
# To assay for ? gal to measure % transfection, cells are stained with XGAL as described by Subramanian, A. and Diamond, S. L. Tissue Engineering 3, 39-52, 1997. The percent of cells stained per field of view is counted using a Zeiss 125M inverted microscope. The count is averaged from at least 4 fields of view for each transfected monolayer. To measure ? -gal expression quantitatively, cell lysates are prepared and tested for ? -gal activity against the fluorogenic substrate, fluorescein di- ? -D-galactopyranoside (FDG, F-1179 Molecular Probes) which is not fluorescent until cleaved to fluorescein monogalactoside and then to fluorescein (excitation/emission: 494/520 nM). For flow cytometry, the trypsinized cell suspension is supplemented with serum, pelleted (100 g) and resuspended in staining medium to approximately 10^7 cells/ml. A 100 μL cell suspension is maintained at 37 ? C and 100 μl of 2 mM FDG maintained at 37 ? C is then added to the cell suspension, mixed rapidly and incubated at 37 ? C for 1 minute. The FDG loading is stopped at the end of 1 minute by adding 1.8 mL of ice-cold staining medium containing 1.5 μM Propidium Iodide and 1 mM PETG. The cells are kept on ice prior to flow cytometer analysis using a Becton Dickinson FACScan system. Unstained BAEC cells allow compensation for autofluorescence. The histogram showing fluorescence/cell to the number of cells is used to calculate the % transfection.
# confluent BAEC [2] = experiment: Flow cytometry (FDG) of confluent BAEC lipofected with pCMVβgal ± peptides; format: cell-based, bovine; conditions: 1 μg plasmid
# Method: as §1
# as §2, with “The cells are incubated for 2 hours at 37 ? C. After two hours, the mixture is aspirated, 4% serum in OPTIMEM media is added, and the cells are allowed to grow for 48 hours. The cells are then fixed and assayed for ? -gal activity.” left out, “adhesion. […]” for “adhesion.”
# plasmid = experiment: Ethidium bromide fluorescence release assay of plasmid condensation; format: binding; conditions: electrostatic interactions
# Excerpt: Several different cationic scaffolds that are rich in amine suitable for conjugation reactions and which mediate electrostatic complexation or condensation with plasmid are used. These scaffolds can include: SV40 T antigen NLS (SVT=CGYGPKKKRKVGG (SEQ ID NO:5)), a mutated version of the SV40 T antigen NLS (muT=VKKGKCRPGKGYG (SEQ ID NO:2)), poly-L-lysine (MW 1, 4, and 30-70 kDa), histone H1, and hydrophilic amine-terminated dendrimers (87,340 MW) of small size (8.4 nm) available through Polysciences, Inc. (Warrington, Pa.). These scaffolds are tested for DNA condensation using a fluorescence quench assay of ethidium bromide labeled plasmid. Synthetic peptides with a C-terminus Gly-Gly-Gly-Cys-COOH (SEQ ID NO:19) linked to M9 or KNS are grafted at 1:1 to 3:1 to the activated amine-rich scaffolds. The crosslinker succinimidyl 4-(N-maleimidomethyl)cyclohexane-1 (SMCC, Pierce) is added at a final concentration of 10 mM (at 10% DMSO) to 100 μg amine rich scaffold (pH 7.2, 25 ? C for 2 hours) to react the SMCC NHS-ester to the primary amine of the scaffold. Excess SMCC and DMSO are removed by sephadex G-15 chromatography. The activated scaffold is conjugated with equimolar or 2 to 3-fold excess of the KNS or M9 peptide at 4 μC (16 hours) by maleimide reaction with the SH moiety of the C-terminal cysteine. Individual reaction species are isolated by electroelution or FLPC. […]
Substance,enhancement of β-galactosidase expression / gene transfer (confluent BAEC [1]),increase in total β-galactosidase expression over transfection with plasmid alone (confluent BAEC [1]),percent transfection: percent of cells with fluorescence ≧100 f.u. (confluent BAEC [2]),plasmid condensation (plasmid)
"CGYGPKKKRKVGG [SV40 T-antigen consensus NLS, reference compound]",A similar level of increase,–,–,–
NQSSNFGPMKGGNFGGRSSGPYGGGGQYFAKPRNQGGY-GGGC (NQSSNFGPMKGGNFGGRSSGPYGGGGQYFAKPRNQGGYGGGC; C-terminal GGGC extension) [M9 peptide],–,18.3 fold,55%,–
VKKGKCRPGKGYG [ScT],little benefit,4 fold,–,condenses plasmid effectively
polylysine [reference compound],A similar level of increase,–,–,–

# Reference: US7662629B2, “Peptide scaffolds for transfer of molecules into eukaryotic cells” (Trustees of the University of Pennsylvania, priority 1998, dated 2010)
